Among the data in PubChem BioAssay AID330 (DTP/NCI, 2004) are T/C values, retold here.

Where “and” joins values, the source holds several entries; their conditions need not be identical. Equal values may be shown once. Inconclusive results and toxic doses are left out.

For the test, the system named is P388 leukemia ip, CD2F1 mice, survival T/C. In words: NCI In Vivo Anticancer Drug Screen. Data for tumor model P388 Leukemia (intraperitoneal) in CD2F1 (CDF1) mice. The settings on record: endpoint: median survival time, higher = longer survival. Put shortly: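 Mice carrying the transplanted tumor received test compound or vehicle. Survival was recorded in each group, and the value is the treated-group measurement divided by that of the vehicle-treated control group.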

The mark [1] stands for this setting: dose: 12.5 mg/kg/injection, schedule: Q01DX009 (ip), vehicle: saline with Tween-80.
The mark [2] stands for this setting: dose: 50.0 mg/kg/injection, schedule: Q01DX005 (ip), vehicle: Klucel (hydroxypropylcellulose) (HPC).
Where [3] appears, read: dose: 60.0 mg/kg/injection, schedule: Q01DX005 (ip), vehicle: saline with Tween-80.
Setting [4] is: dose: 120.0 mg/kg/injection, schedule: Q01DX005 (ip), vehicle: saline with Tween-80.
The mark [5] stands for this setting: dose: 240.0 mg/kg/injection, schedule: Q01DX005 (ip), vehicle: saline with Tween-80.
Setting [6] is: dose: 100.0 mg/kg/injection, schedule: Q01DX001 (ip), vehicle: Klucel (hydroxypropylcellulose) (HPC).
Setting [7] is: dose: 200.0 mg/kg/injection, schedule: Q01DX001 (ip), vehicle: Klucel (hydroxypropylcellulose) (HPC).
Where [8] appears, read: dose: 400.0 mg/kg/injection, schedule: Q01DX001 (ip), vehicle: Klucel (hydroxypropylcellulose) (HPC).
Where [9] appears, read: dose: 50.0 mg/kg/injection, schedule: Q01DX009 (ip), vehicle: saline.
The mark [10] stands for this setting: dose: 100.0 mg/kg/injection, schedule: Q01DX009 (ip), vehicle: saline.
[11] abbreviates: dose: 200.0 mg/kg/injection, schedule: Q01DX009 (ip), vehicle: saline.
[12] abbreviates: dose: 60.0 mg/kg/injection, schedule: Q01DX005 (ip), vehicle: saline.
Setting [13] is: dose: 120.0 mg/kg/injection, schedule: Q01DX005 (ip), vehicle: saline.
Where [14] appears, read: dose: 240.0 mg/kg/injection, schedule: Q01DX005 (ip), vehicle: saline.
Where [15] appears, read: dose: 100.0 mg/kg/injection, schedule: Q01DX005 (ip), vehicle: Klucel (hydroxypropylcellulose) (HPC).
The mark [16] stands for this setting: dose: 200.0 mg/kg/injection, schedule: Q01DX005 (ip), vehicle: Klucel (hydroxypropylcellulose) (HPC).

Regarding `BrCCC[P+](c1ccccc1)(c1ccccc1)c1ccccc1`, the T/C (dose: 8.25 mg/kg/injection, schedule: Q01DX009 (ip), vehicle: saline with Tween-80) was 116 % of control and the T/C under setting [1] is 116 % of control.
With `C[C-]=O.C[C-]=O.[C-]#[O+].[C-]#[O+].[C-]#[O+].[C-]#[O+].[Re]`, the T/C (dose: 12.5 mg/kg/injection, schedule: Q01DX005 (ip), vehicle: Klucel (hydroxypropylcellulose) (HPC)) is 101 % of control; the T/C (dose: 25.0 mg/kg/injection, schedule: Q01DX005 (ip), vehicle: Klucel (hydroxypropylcellulose) (HPC)) is 96 % of control; the T/C under setting [2] was 93 % of control.
For `CCOP1(OCC)(OCC)OC(C(F)(F)F)(C(F)(F)F)C(C(F)(F)F)(C(F)(F)F)O1`, the T/C (dose: 6.25 mg/kg/injection, schedule: Q01DX009 (ip), vehicle: saline with Tween-80) was 100 % of control and the T/C under setting [1] is 105 % of control.
With `FC(F)(F)C1(C(F)(F)F)N=CC=CN1`, the T/C is, setting by setting: (dose: 50.0 mg/kg/injection, schedule: Q01DX009 (ip), vehicle: distilled water + alcohol) 101 % of control; (dose: 100.0 mg/kg/injection, schedule: Q01DX009 (ip), vehicle: distilled water + alcohol) 95 % of control.
As for `O=c1sc2ccccc2n2cccc12`, the T/C runs as follows: under setting [3], 92 % of control; under setting [4], 94 % of control; under setting [5], 92 % of control.
Consider `COC(=O)N1c2ccccc2C(c2ccccc2)=NC1C#N` (configuration not stated), for which the T/C was 103 % of control (dose: 7.5 mg/kg/injection, schedule: Q01DX005 (ip), vehicle: saline with Tween-80); 112 % of control (dose: 15.0 mg/kg/injection, schedule: Q01DX005 (ip), vehicle: saline with Tween-80); 103 % of control (dose: 30.0 mg/kg/injection, schedule: Q01DX005 (ip), vehicle: saline with Tween-80).
Turning to `COc1ccc(/C=C/C(=O)c2ccccc(=O)c2O)cc1`, the T/C is, setting by setting: (dose: 50.0 mg/kg/injection, schedule: Q01DX001 (ip), vehicle: Klucel (hydroxypropylcellulose) (HPC)) 106 % of control; under setting [6], 101 % of control; under setting [7], 105 % of control; under setting [8], 92 % of control.
Consider `CN(C)CCCSc1nnc(-c2ccc3c(c2)OCO3)o1`, for which the T/C runs as follows: (dose: 50.0 mg/kg/injection, schedule: Q04DX002 (ip), vehicle: water) 106 % of control; (dose: 100.0 mg/kg/injection, schedule: Q04DX002 (ip), vehicle: water) 100 % of control; (dose: 200.0 mg/kg/injection, schedule: Q04DX002 (ip), vehicle: water) 101 % of control.
Consider `CNC(=O)Oc1ccc(OC2OC(CO)C(O)C(O)C2O)c2ccccc12` (configuration not stated), for which the T/C runs as follows: (dose: 100.0 mg/kg/injection, schedule: Q01DX001 (ip), vehicle: saline) 101 % of control; (dose: 200.0 mg/kg/injection, schedule: Q01DX001 (ip), vehicle: saline) 104 % of control; (dose: 400.0 mg/kg/injection, schedule: Q01DX001 (ip), vehicle: saline) 103 % of control.
Turning to `COc1ccc2c3c(cnc2c1)C(=O)CCC3`, the T/C was 104 % of control (dose: 50.0 mg/kg/injection, schedule: Q01DX005 (ip), vehicle: saline with Tween-80); 101 % of control (dose: 100.0 mg/kg/injection, schedule: Q01DX005 (ip), vehicle: saline with Tween-80); 96 % of control (dose: 200.0 mg/kg/injection, schedule: Q01DX005 (ip), vehicle: saline with Tween-80).
In the case of `CCOC(=O)c1ccc(NC(=O)Nc2ccc(Nc3ccccc3)cc2)cc1`, the T/C was 95 % of control (dose: 60.0 mg/kg/injection, schedule: Q01DX005 (ip), vehicle: Klucel (hydroxypropylcellulose) (HPC)); 92 % of control (dose: 120.0 mg/kg/injection, schedule: Q01DX005 (ip), vehicle: Klucel (hydroxypropylcellulose) (HPC)); 88 % of control (dose: 240.0 mg/kg/injection, schedule: Q01DX005 (ip), vehicle: Klucel (hydroxypropylcellulose) (HPC)).
On to `CC(C)c1ccccc1Oc1ccccc1N=C1CCN(C)C1`, for which the T/C is, setting by setting: (dose: 12.5 mg/kg/injection, schedule: Q01DX009 (ip), vehicle: saline) 100 % of control; (dose: 25.0 mg/kg/injection, schedule: Q01DX009 (ip), vehicle: saline) 107 % of control; under setting [9], 100 % of control and 95 % of control.
In the case of `Cn1nnnc1SCC1=C(C(=O)O)N2C(=O)C(NC(=O)C(OC=O)c3ccccc3)C2SC1` (configuration not stated), the T/C under setting [9] is 100 % of control, the T/C under setting [10] is 97 % of control and the T/C under setting [11] is 104 % of control.
For the compound `COc1c2occc2c(S(=O)(=O)Cl)c2ccc(=O)oc12`, the T/C is 95 % of control (dose: 100.0 mg/kg/injection, schedule: Q01DX001 (ip), vehicle: saline with Tween-80); 109 % of control (dose: 200.0 mg/kg/injection, schedule: Q01DX001 (ip), vehicle: saline with Tween-80); 100 % of control (dose: 400.0 mg/kg/injection, schedule: Q01DX001 (ip), vehicle: saline with Tween-80).
As for `CCc1cccc2c(NCCCCNc3c4ccccc4nc4c(CC)cccc34)c3ccccc3nc12`, the T/C (dose: 0.62 mg/kg/injection, schedule: Q## X009 (ip), vehicle: lactic acid) is 93 % of control; the T/C (dose: 1.25 mg/kg/injection, schedule: Q## X009 (ip), vehicle: lactic acid) is 100 % of control; the T/C (dose: 2.5 mg/kg/injection, schedule: Q## X009 (ip), vehicle: lactic acid) is 99 % of control; the T/C (dose: 5.0 mg/kg/injection, schedule: Q## X009 (ip), vehicle: lactic acid) was 91 % of control.
Turning to `O=c1[nH]c2ccccc2n1CCCN1CCC(n2c(=O)[nH]c3cc(Cl)ccc32)CC1`, the T/C was 90 % of control under setting [9], 91 % of control under setting [10] and 88 % of control under setting [11].
In the case of `COC(=O)CCc1c(C)nc(N(C)C)oc1=O`, the T/C reads like this: under setting [12], 100 % of control; under setting [13], 100 % of control; under setting [14], 99 % of control.
As for `CC(=O)CC(=O)c1ccc(C)cc1.CC(=O)CC(=O)c1ccc(C)cc1.[Cu]`, the T/C by setting is: (dose: 25.0 mg/kg/injection, schedule: Q01DX009 (ip), vehicle: saline with Tween-80) 98 % of control; (dose: 50.0 mg/kg/injection, schedule: Q01DX009 (ip), vehicle: saline with Tween-80) 108 % of control and 113 % of control.
On to `C1CN2CCN3CCCN4CCN(C1)C2C34` (configuration not stated), for which the T/C (dose: 50.0 mg/kg/injection, schedule: Q01DX005 (ip), vehicle: saline) was 93 % of control; the T/C (dose: 100.0 mg/kg/injection, schedule: Q01DX005 (ip), vehicle: saline) was 108 % of control; the T/C (dose: 200.0 mg/kg/injection, schedule: Q01DX005 (ip), vehicle: saline) was 111 % of control.
As to `COc1ccc(S(=O)(=O)c2cc(C)c3ccc4ccccc4c3n2)cc1`, the T/C under setting [2] is 101 % of control, the T/C under setting [15] is 102 % of control and the T/C under setting [16] was 98 % of control.
For the compound `O=C1C=C(O)CC2(CCCCC2)C1`, the T/C runs as follows: under setting [2], 102 % of control; under setting [15], 100 % of control and 96 % of control; under setting [16], 104 % of control and 105 % of control.
As to `CC1(C)C2=CCC[C@H]2[C@H]2[C@@H](OC(=O)/C=C/c3ccccc3)CC[C@H]21`, the T/C under setting [6] is 100 % of control, the T/C under setting [7] was 103 % of control and the T/C under setting [8] is 103 % of control.
With `CC12CC=CCC1CCC1C2CCC2(C)C(O)C(O)CC12` (configuration not stated), the T/C reads like this: under setting [2], 101 % of control; under setting [15], 95 % of control; under setting [16], 93 % of control.
Turning to `C/C=C(/C(=O)O)S(=O)(=O)O.[Ag]`, the T/C (dose: 20.0 mg/kg/injection, schedule: Q01DX009 (ip), vehicle: saline with Tween-80) was 103 % of control.
Regarding `CCOC1CC2CCCN2O1` (configuration not stated), the T/C is, setting by setting: (dose: 75.0 mg/kg/injection, schedule: Q01DX009 (ip), vehicle: saline) 103 % of control; (dose: 150.0 mg/kg/injection, schedule: Q01DX009 (ip), vehicle: saline) 100 % of control; (dose: 300.0 mg/kg/injection, schedule: Q01DX009 (ip), vehicle: saline) 94 % of control.
With `O=C1OCC[C@@H]1O`, the T/C under setting [12] is 101 % of control, the T/C under setting [13] is 101 % of control and the T/C under setting [14] was 97 % of control.
Turning to `CCc1cccc(CC)c1NC(=O)c1ccccc1Br`, the T/C was 97 % of control under setting [3], 96 % of control under setting [4] and 112 % of control under setting [5].
